Results on 16 molecules are retold here after PubChem BioAssay (NCI).

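Assay format: 96-well plates, 48-hour exposure. GI50: concentration for 50% inhibition of growth. TGI denotes the concentration required for complete inhibition of growth.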

Test systems include SF-295 CNS; IGROV1 ovarian; COLO 205 colon; SK-MEL-28 melanoma; HCT-15 colon; EKVX NSCLC; A498 renal; K-562 leukemia; HOP-62 NSCLC; NCI/ADR-RES ovarian.
Holding throughout (assay): NCI tumour cell line growth inhibition, 48 h

As to `Nc1ncnc2c1ncn2CCCC(c1ccccc1)P(=O)(O)O` (stereo unspecified), the TGI in the test with SF-295 CNS, with IGROV1 ovarian, in the test on COLO 205 colon, in the test on SK-MEL-28 melanoma, in the test with HCT-15 colon and with EKVX NSCLC was greater than 100 µM in each case. The TGI with A498 renal is greater than 100 µM.
As for `N=c1n(CC(=O)NC23CC4CC(CC(C4)C2)C3)c2ccccc2n1CC(=O)NC12CC3CC(CC(C3)C1)C2`, the TGI with SF-295 CNS amounted to 3.52 µM; in the test with IGROV1 ovarian it was 3.1 µM; in the test on COLO 205 colon, 3.49 µM; with K-562 leukemia it was 5.54 µM; in the test on SK-MEL-28 melanoma, 3.17 µM; in the test with HCT-15 colon, 3.31 µM. In addition, the TGI amounted to 5.03 µM with EKVX NSCLC, 3.48 µM in the test with HOP-62 NSCLC and 3.15 µM with A498 renal.
In the case of `Cc1c(-c2coc(-c3ccccc3)n2)c(=O)n(-c2ccccc2)n1C`, the TGI with SF-295 CNS, with IGROV1 ovarian, in the test on COLO 205 colon, in the test with SK-MEL-28 melanoma, in the test with HCT-15 colon and in the test on HOP-62 NSCLC was greater than 100 µM each time. Moreover, the TGI with A498 renal is greater than 100 µM.
`COc1ccc(N2CN(C)CSC2=S)cc1`: the TGI in the test with SF-295 CNS is 86.2 µM; with IGROV1 ovarian, greater than 100 µM; in the test on NCI/ADR-RES ovarian, greater than 100 µM; with COLO 205 colon it was greater than 100 µM; with K-562 leukemia, greater than 100 µM; in the test on SK-MEL-28 melanoma, greater than 100 µM. Besides, the TGI was greater than 100 µM in the test on HCT-15 colon, greater than 100 µM in the test with EKVX NSCLC, 61.5 µM with HOP-62 NSCLC and greater than 100 µM in the test with A498 renal.
`CO[C@H]1CC[C@]2(C)C3=CC[C@@]4(C)C(CC[C@@H]4C(C)CC[C@@H](C)C(C)C)C(=CCC2C1)O3` (stereo partly specified): the TGI in the test on SF-295 CNS, in the test with IGROV1 ovarian, in the test with COLO 205 colon, with K-562 leukemia, with SK-MEL-28 melanoma and in the test on HCT-15 colon was greater than 25 µM each time. The TGI in the test with EKVX NSCLC, in the test with HOP-62 NSCLC and in the test on A498 renal was greater than 25 µM each time.
As for `Fc1ccc2[nH]cc(-c3nc(-c4c[nH]c5ccncc45)cs3)c2c1`, the GI50 was 1.68 µM in the test with SF-295 CNS, 1.9 µM with SK-MEL-28 melanoma and 1.98 µM in the test on A498 renal. Besides, the figures for the TGI in the test with SF-295 CNS, with SK-MEL-28 melanoma and in the test with A498 renal were 3.1 µM, 3.33 µM and 3.43 µM, respectively.
Take `CNC(=O)c1cc2nc3ccccc3c(=O)n2c2ccccc12`: the TGI with SF-295 CNS, with IGROV1 ovarian, in the test with NCI/ADR-RES ovarian, with COLO 205 colon, with K-562 leukemia and with SK-MEL-28 melanoma was greater than 10 µM each time. The TGI in the test on HCT-15 colon, in the test on EKVX NSCLC, with HOP-62 NSCLC and in the test with A498 renal was greater than 10 µM each time.
Take `Brc1c2nc3ccccc3nc2n2ccc3ccccc3c12`: the TGI in the test with IGROV1 ovarian, in the test on COLO 205 colon, with K-562 leukemia, in the test with SK-MEL-28 melanoma, in the test on HCT-15 colon and with EKVX NSCLC was greater than 100 µM each time. The TGI with HOP-62 NSCLC was greater than 100 µM.
`Cc1cc(Br)cc(C)c1NC(=O)C(=O)C(C(=O)c1ccncc1)C1OC(=O)c2ccccc21` (stereo unspecified): the TGI with IGROV1 ovarian, in the test on COLO 205 colon, in the test with K-562 leukemia, with HCT-15 colon, with EKVX NSCLC and in the test with HOP-62 NSCLC was greater than 100 µM each time. Also, in the test on A498 renal, the TGI was greater than 100 µM.
As to `COc1cc(NS(C)(=O)=O)ccc1NCc1cnc2ccc3[nH]cccc3c12`, the TGI with SF-295 CNS is 53.4 µM; in the test on IGROV1 ovarian, greater than 100 µM; with NCI/ADR-RES ovarian it was 62.1 µM; with COLO 205 colon it was 31.3 µM; in the test on K-562 leukemia, 41 µM; in the test with SK-MEL-28 melanoma it was 60.9 µM. Besides, the TGI in the test on HCT-15 colon was determined as 58.4 µM; with EKVX NSCLC it was 57.7 µM; with HOP-62 NSCLC, 55.6 µM; in the test with A498 renal, 59.2 µM.
Take `N#CNC(=NCc1ccccc1)NCCc1c[nH]c2ccccc12`: the TGI in the test on SF-295 CNS, with IGROV1 ovarian, in the test with COLO 205 colon, in the test with K-562 leukemia, in the test on SK-MEL-28 melanoma and in the test with HCT-15 colon was greater than 100 µM in each case. For the same molecule, the TGI in the test with EKVX NSCLC and in the test with HOP-62 NSCLC was greater than 100 µM throughout.
`CC(C)(C)c1ccc(O)c(C(c2ccc([N+](=O)[O-])cc2)c2cc(C(C)(C)C)ccc2O)c1`: the TGI with SF-295 CNS came to 3.64 µM; with IGROV1 ovarian, 4.37 µM; in the test on NCI/ADR-RES ovarian, 7.72 µM; in the test on COLO 205 colon, 5.8 µM; in the test with K-562 leukemia, 7.35 µM; in the test on SK-MEL-28 melanoma it was 3.72 µM. The TGI in the test on HCT-15 colon was found to be 4.27 µM; in the test on EKVX NSCLC, 3.92 µM; in the test on HOP-62 NSCLC it was 3.39 µM.
As for `COc1cc(N)c2[nH]c3c(C)ccc(C)c3c2c1`, the TGI in the test with SF-295 CNS, in the test with COLO 205 colon, in the test with K-562 leukemia, in the test with SK-MEL-28 melanoma, in the test with HCT-15 colon and in the test with EKVX NSCLC was greater than 100 µM throughout. Further, the TGI in the test on HOP-62 NSCLC was greater than 100 µM.
Consider `COc1cc2c(c(O)c1C)C(=O)CC(c1ccccc1)O2` (stereo unspecified), for which the TGI with SF-295 CNS is greater than 10 µM; with IGROV1 ovarian, greater than 100 µM; with K-562 leukemia, greater than 100 µM; in the test with SK-MEL-28 melanoma, greater than 100 µM; with HCT-15 colon, greater than 100 µM; with EKVX NSCLC, greater than 100 µM. Besides, the TGI in the test on HOP-62 NSCLC and in the test with A498 renal was greater than 100 µM each time.
As for `COC1=CC(=O)C2C(C1=O)[C@@H]1c3ccccc3OC(C)(C)[C@H]21` (stereo partly specified), the TGI in the test with SF-295 CNS is greater than 100 µM; in the test with COLO 205 colon, 35.1 µM; with K-562 leukemia, 38.1 µM; in the test on SK-MEL-28 melanoma, 32.8 µM; in the test on HCT-15 colon it was 36.2 µM; with EKVX NSCLC, 88.1 µM. For the same molecule, the TGI in the test with HOP-62 NSCLC and in the test on A498 renal was greater than 100 µM throughout.
For the molecule `Cc1nc2ccccc2c(=O)n1NC(=O)c1ccccc1[N+](=O)[O-]`, the TGI with SF-295 CNS, with IGROV1 ovarian, with NCI/ADR-RES ovarian, with K-562 leukemia, in the test with SK-MEL-28 melanoma and with HCT-15 colon was greater than 100 µM each time. For the same molecule, the TGI with EKVX NSCLC, in the test with HOP-62 NSCLC and in the test with A498 renal was greater than 100 µM in each case.
